The results in this text go back to article PMC3866116 (PLoS ONE, 2013).

The subject of data set [1] is HCVcc derived from JFH-1 strain. Kind of data set: HCVcc virus production in Huh7 OK1 cells (supernatant viral RNA by qRT-PCR). The class given is cell-based. As to conditions: Hepatitis C virus, 24 h, read-out: EC50 of HCV viral production. The protocol: (§1) The Huh7/Rep-Feo cell line, which harbors the subgenomic replicon RNA composed of HCV IRES, the gene of the fusion protein consisting of neomycin phosphotransferase and firefly luciferase, EMCV IRES and a nonstructural gene of genotype 1b strain N in order in Huh7 cell line, was previously established. Thus, the luciferase activity corresponds to the level of HCV RNA replication. The cell line was maintained in Dulbecco's modified Eagle medium containing 10% fetal calf serum and 0.5 mg/mL G418 and cultured in absence of G418 when they were treated with compounds. The Lunet/Con1LUN Sb #26 cell line, which harbors the subgenomic replicon RNA of the Con1 strain (genotype 1b), was described previously. The OR6 cell line, which harbors the full genomic replicon RNA of the O strain (genotype 1b), was described previously. The HCV replicon cell line derived from the genotype 2a strain JFH1 was described previously. The viral RNA derived from the plasmid pJFH1 was transcribed and introduced into Huh7OK1 cells according to the method of Wakita et al.. The virus was amplified by the several times passages. The cells were infected with the virus at a multiplicity of infection (moi) of 1 and then treated with each compound at 24 h post-infection. The culture supernatants were harvested 72 h post-treatment to estimate the viral RNA as described below. […]

Data set [2] concerns HCV subgenomic replicon RNA of the Con1 strain (genotype 1b). Kind of data set: Luciferase assay in Con1 LUN Sb #26 replicon cells. The class given is cell-based, hepatitis C virus. The protocol: as §1, with “passages.” for “passages. The cells were infected with the virus at a multiplicity of infection (moi) of 1 and then treated with each compound at 24 h post-infection. The culture supernatants were harvested 72 h post-treatment to estimate the viral RNA as described below.”
(§2) The replicon cells were seeded at 2×10^4 cells per well in a 48-well plate 24 h before treatment. […] The resulting luminescence was detected by a Luminescencer-JNR AB-2100 (ATTO, Tokyo, Japan).

Data set [3] deals with HCV NS3. Kind of data set: Western blotting of NS3 in Huh7/Rep-Feo cells. It is filed as cell-based, hepatitis C virus. The settings on record: Huh7/Rep-Feo cells treated 72 h, dose-dependent. The protocol:
Western blotting was carried out by the method described previously. The antibodies to NS3 (clone 8G-2, mousemonoclonal, Abcam, Cambridge, UK), and beta-actin were purchased from Cell Signaling Technology (rabbit polyclonal, Danvers, MA, USA) and were used as the primary antibodies in this study.

The test system of data set [4] is HCV subgenomic replicon of genotype 2a strain JFH1. The data set can be described thus: Luciferase assay in genotype 2a JFH1 replicon cells. It is filed as cell-based, hepatitis C virus. As to conditions: Huh7 Rep/Reo-2a, JFH1 (2a). On the procedure:
as §1, with “passages.” for “passages. The cells were infected with the virus at a multiplicity of infection (moi) of 1 and then treated with each compound at 24 h post-infection. The culture supernatants were harvested 72 h post-treatment to estimate the viral RNA as described below.”
as §2
(In general: A replicon is a self-replicating genome or part of one, used to study replication in cells.)

For data set [5], the system named is HCV full genomic replicon RNA of the O strain (genotype 1b). Kind of data set: Luciferase assay in OR6 full genome replicon cells. The class given is cell-based, hepatitis C virus. The protocol:
as §1, with “passages.” for “passages. The cells were infected with the virus at a multiplicity of infection (moi) of 1 and then treated with each compound at 24 h post-infection. The culture supernatants were harvested 72 h post-treatment to estimate the viral RNA as described below.”
as §2

Data set [6] in a line: Cytotoxicity (MTS assay) in Huh7/Rep-Feo replicon cells. It is filed as cell-based. The settings on record: human, Huh7/Rep-Feo cells, MTS, read-out: CC50, fifty percent cytotoxicity concentration based on the reduction in cell viability. The protocol: (§3) The replicon cells were seeded at a density of 1×10^4 cells per well in a 96-well plate and then incubated at 37°C for 24 h. […] Cell viability was measured using a dimethylthiazol carboxymethoxy-phenylsulfophenyl tetrazolium (MTS) assay with a CellTiter 96 aqueous one-solution cell proliferation assay kit (Promega).

Data set [7] relates to EMCV or HCV IRES. The data set can be described thus: Effect on IRES-dependent translation in transfected Huh7 cells. It is filed as cell-based. The settings on record: 40 µg/ml, 72 h. On the procedure: (§4) Huh7 OK1 cells were transfected with pEF.Rluc.HCV.IRES.Feo or pEF.Rluc.EMCV.IRES.Feo [39]. These transfected cells were seeded at 2×10^4 cells per well in a 48-well plate 24 h before treatment, treated with DMSO or compound 10, and then harvested at 72 h post-treatment. The firefly luciferase activities were measured with a luciferase assay system (Promega). The total protein concentration was measured using the BCA Protein Assay Reagent Kit (Thermo Scientific, Rockford, IL, USA) to normalize luciferase activity. To evaluate the interferon response, Huh7OK1 cells were seeded on a 48 well plate at a density of 2×10^4 cells per well, and transfected with pISRE-TA-Luc (Takara bio, Shiga, Japan) and phRG-TK (Promega). These transfected cells were incubated in the presence of compounds, IFN-α 2b, or DMSO, and then harvested at 48 h post-treatment. The firefly luciferase and Renilla luciferase activities were quantified by using Dual luciferase reporter assay system (Promega).

Data set [8] relates to HCV subgenomic replicon RNA of genotype 1b strain N (Huh7/Rep-Feo cells). Kind of data set: Luciferase assay in HCV subgenomic replicon cell line Huh7/Rep-Feo. The class given is cell-based, hepatitis C virus. As to conditions: for EC50: Hepatitis C virus, read-out: EC50, fifty percent effective concentration based on the inhibition of HCV replication; for HCV RNA replication (luciferase activity): various concentrations (compound 1: 1.3 to 40 µM), dose-dependent. The protocol:
The Huh7/Rep-Feo cell line, which harbors the subgenomic replicon RNA composed of HCV IRES, the gene of the fusion protein consisting of neomycin phosphotransferase and firefly luciferase, EMCV IRES and a nonstructural gene of genotype 1b strain N in order in Huh7 cell line, was previously established. Thus, the luciferase activity corresponds to the level of HCV RNA replication. The cell line was maintained in Dulbecco's modified Eagle medium containing 10% fetal calf serum and 0.5 mg/mL G418 and cultured in absence of G418 when they were treated with compounds. The Lunet/Con1LUN Sb #26 cell line, which harbors the subgenomic replicon RNA of the Con1 strain (genotype 1b), was described previously. The OR6 cell line, which harbors the full genomic replicon RNA of the O strain (genotype 1b), was described previously. The HCV replicon cell line derived from the genotype 2a strain JFH1 was described previously. The viral RNA derived from the plasmid pJFH1 was transcribed and introduced into Huh7OK1 cells according to the method of Wakita et al.. The virus was amplified by the several times passages. The cells were infected with the virus at a multiplicity of infection (moi) of 1 and then treated with each compound at 24 h post-infection. The culture supernatants were harvested 72 h post-treatment to estimate the viral RNA as described below.
The replicon cells were seeded at 2×10^4 cells per well in a 48-well plate 24 h before treatment. […] The resulting cells were harvested 72 h post-treatment and lysed with cell culture lysis reagent (Promega, Madison, WI). The luciferase activity of each cell lysate was estimated using a luciferase assay system (Promega). The resulting luminescence was detected by a Luminescencer-JNR AB-2100 (ATTO, Tokyo, Japan).

The subject of data set [9] is ISRE-promoter activity. The data set can be described thus: ISRE reporter assay in Huh7 OK1 cells. The class given is cell-based. As to conditions: 48 h of treatment, interferon alpha 2b as positive control.
Data set [10] concerns firefly and Renilla luciferases. The data set can be described thus: Effect on firefly and Renilla luciferase activities in transfected Huh7 cells. It is filed as cell-based. The settings on record: 40 µg/ml, 72 h. The protocol: as §4
For data set [11], the system named is Huh7/Rep-Feo cells. Kind of data set: Cytotoxicity (MTS assay) in Huh7/Rep-Feo replicon cells. It is filed as cell-based. The settings on record: Huh7/Rep-Feo, 1.3 to 40 µM, 72 h. The protocol:
as §3
(Formazan colour is commonly taken as a measure of viable cells.)

The test system of data set [12] is ISGs (Mx1, MxA, IFIT4, ISG15, OAS1, OAS2, OAS3). Kind of data set: RT-PCR of interferon stimulated genes in replicon cells. It is filed as cell-based. The settings on record: replicon cell line of genotype 1b, 48 h, listed as CAPE. The protocol: Total RNAs were prepared from cells by using the RNAqueous-4PCR kit (Life Technologies, Carlsbad, CA). Viral RNA were prepared from culture supernatants by using the QIAamp Viral RNA mini kit (QIAGEN, Hilden, Germany). The viral RNA genome was estimated by the qRT-PCR method described previously. RT-PCR was carried out by the method described previously which was slightly modified at the PCR step. The PCR samples were incubated once for 10 min at 95°C for an initial activation step of the AmpliTaq Gold DNA Polymerase (Life Technologies), and then subjected to an amplification step of 30 repeats of the cycle consisting of three segments as follow: 0.5 min at 95°C, 1 min at 55°C and 1 min at 72°C. The primers used in this study were as follows: Mx1: 5′-[…]-3′ and 5′-[…]-3′;

Like-named read-outs stand apart in the source and are kept apart here.

For the compound `CCCCCCCCOC(=O)/C=C/c1ccc(O)c(O)c1` [Compound 10, Caffeic acid n-octyl ester], the EC50 was determined as 1800 ± 400 nM in data set [1]; 1000 ± 100 nM in [2] (Hepatitis C virus, Con1 LUN Sb #26, subgenome, Con1 (1b), 72 h, read-out: EC50, fifty percent effective concentration based on the inhibition of HCV replication); 1000 ± 300 nM in data set [4] (Hepatitis C virus, Huh-7, subgenome, 72 h, read-out: EC50, fifty percent effective concentration based on the inhibition of HCV replication); 1500 ± 400 nM in [5] (Hepatitis C virus, OR6, full genome, O (1b), 72 h, read-out: EC50, fifty percent effective concentration based on the inhibition of HCV replication); 2700 ± 100 nM in [8] (Huh-7, Huh7/Rep-Feo, subgenome, strain N (1b), 72 h). Besides, the “SI, selectivity index (CC50/EC50)” value in data set [2] (Con1 LUN Sb #26, Con1 (1b)) is 63.1; in data set [4], 60.0; in data set [5] (OR6, O (1b)), 41.1; in data set [8] (Huh7/Rep-Feo, strain N (1b)), 26.6. In addition, in data set [3], the NS3 protein level result is “reduced”. Moreover, the CC50 at 72 h in data set [6] (Huh7/Rep-Feo replicon cells) is 71700 ± 8500 nM. Also, the IRES-dependent translation result in data set [7] is on record as “not effect”. In data set [8] (Huh7/Rep-Feo, 72 h), the “HCV RNA replication (luciferase activity)” value is “reduced”. In [9], the “effect on ISRE-promoter activities” value is reported as “no significant effects”. Further, the “enzymatic activities of firefly and Renilla luciferases” value in [10] was “not effect”.

Consider `O=C(/C=C/c1ccc(O)c(O)c1)OCCc1ccccc1` [Compound 1, Caffeic acid phenethyl ester], for which the NS3 protein level entry in [3] was “decreased”. The CC50 at 72 h in data set [6] is 136000 ± 1900 nM. In [11], the cell viability result is reported as “did not affect”. Further, the “transcriptional expressions of ISGs (Mx1, MxA, IFIT4, ISG15, OAS1, OAS2, OAS3) induced” value in [12] was “did not induce”. The EC50 in [8] (Huh-7, 72 h) was determined as 9000 ± 700 nM. Further, in data set [8] (Huh7/Rep-Feo, 72 h), the “HCV RNA replication (luciferase activity)” value was “suppressed”. Moreover, the “effect on ISRE-promoter activities” value in [9] is on record as “no significant effects”.
